Drawing on US7285683B2, “Bicyclic and tricyclic cannabinoids” (University of Connecticut, priority 2001, dated 2007), this text covers Ki and melting point for 17 molecules.

Read-outs that look alike come from different tables or passages of the source.

Data set [1] deals with T1, CB1 cannabinoid receptor (Rattus norvegicus, UniProt P20272).
T1 construct: membranes were prepared from rat forebrain membranes; from tissue; host or cells: rat forebrain
Briefly: CB1 receptor binding assay, [3H] CP-55,940 displacement, rat forebrain membranes. On the procedure:
Some inventive analogs were tested for CB2 receptor binding affinity and for CB1 receptor affinity (to determine selectivity). As used herein, “binding affinity” is represented by the IC50 value which is the concentration of an analog required to occupy the 50% of the total number (Bmax) of the receptors. The lower the IC50 value the higher the binding affinity. […] For the CB1 receptor binding studies, membranes were prepared from rat forebrain membranes according to the procedure of P. R. Dodd et al, A Rapid Method for Preparing Synaptosomes: Comparison with Alternative Procedures, Brain Res., 107-118 (1981). The binding of the novel analogues to the CB1 cannabinoid receptor was assessed as described in W. A. Devane et al, Determination and Characterization of a Cannabinoid Receptor in a Rat Brain, Mol. Pharmacol., 34, 605-613 (1988) and A. Charalambous et al, 5′-azido Δ^8- THC: A Novel Photoaffinity Label for the Cannabinoid Receptor, J. Med. Chem., 35, 3076-3079 (1992) with the following changes. The above articles are incorporated by reference herein.
Membranes, previously frozen at −80° C., were thawed on ice. To the stirred suspension was added three volumes of TME (25 mM Tris-HCl buffer, 5 mM MgCl2 and 1 mM EDTA) at a pH 7.4. The suspension was incubated at 4° C. for 30 min. At the end of the incubation, the membranes were pelleted and washed three times with TME.
The treated membranes were subsequently used in the binding assay described below. Approximately 30 μg of membranes were incubated in silanized 96-well microtiter plate with TME containing 0.1% essentially fatty acid-free bovine serum albumin (BSA), 0.8 nM [^3H] CP-55,940, and various concentrations of test materials in a final volume of 200 μL. The assays were incubated for 1 hour at 30° C. and then immediately filtered using Packard Filtermate 196 harvester and Whatman GF/C filterplates and washed with wash buffer (TME) containing 0.5% BSA. Radioactivity was detected using MicroScint 20 scintillation cocktail added directly to the dried filterplates, and the filterplates were counted using a Packard Instruments Top-Count. Nonspecific binding was assessed using 100 nM CP-55,940. Data collected from three independent experiments performed with duplicate determinations was normalized between 100% and 0% specific binding for [^3H] CP-55,940, determined using buffer and 100 nM CP-55,940. The normalized data was analyzed using a 4-parameter nonlinear logistic equation to yield IC50 values. Data from at least two independent experiments performed in duplicate was used to calculate IC50 values which were converted to Ki values using the assumptions of Cheng et al, Relationship Between the Inhibition Constant (Ki) and the concentration of Inhibitor which causes 50% Inhibition (IC50) of an Enzymatic Reaction, Biochem. Pharmacol., 22, 3099-3102, (1973), which is incorporated by reference herein.

Data set [2] addresses T2, CB2 receptor (Mus musculus, UniProt P47936).
T2 construct: membranes were prepared from frozen mouse spleen; from tissue; host or cells: mouse spleen
Briefly: CB2 receptor binding assay, [3H] CP-55,940 displacement, mouse spleen membranes.

Setting [3] is: Table 1, bicyclic-cannabinoid analogs, rat forebrain membranes, 0.8 nM [3H] CP-55,940, read-out: Ki in nM for the CB1 Receptor.

By Ki is commonly meant the equilibrium dissociation constant of an inhibitor or competing ligand from its target. As a reminder, the melting point is the temperature of the solid-liquid transition.

T1 sequence (P20272 whole entry): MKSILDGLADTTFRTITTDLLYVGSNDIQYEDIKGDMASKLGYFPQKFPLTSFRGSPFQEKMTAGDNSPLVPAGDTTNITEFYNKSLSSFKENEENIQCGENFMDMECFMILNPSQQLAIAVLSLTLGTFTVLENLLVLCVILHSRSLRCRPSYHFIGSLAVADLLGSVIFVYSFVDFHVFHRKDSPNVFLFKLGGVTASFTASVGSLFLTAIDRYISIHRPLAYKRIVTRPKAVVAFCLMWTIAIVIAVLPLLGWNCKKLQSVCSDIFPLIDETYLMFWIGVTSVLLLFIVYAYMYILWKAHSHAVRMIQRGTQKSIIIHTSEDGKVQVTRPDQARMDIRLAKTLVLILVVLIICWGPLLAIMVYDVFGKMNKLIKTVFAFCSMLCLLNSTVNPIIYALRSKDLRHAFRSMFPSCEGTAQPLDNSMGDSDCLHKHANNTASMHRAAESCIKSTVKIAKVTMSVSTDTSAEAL
T2 sequence (P47936 whole entry): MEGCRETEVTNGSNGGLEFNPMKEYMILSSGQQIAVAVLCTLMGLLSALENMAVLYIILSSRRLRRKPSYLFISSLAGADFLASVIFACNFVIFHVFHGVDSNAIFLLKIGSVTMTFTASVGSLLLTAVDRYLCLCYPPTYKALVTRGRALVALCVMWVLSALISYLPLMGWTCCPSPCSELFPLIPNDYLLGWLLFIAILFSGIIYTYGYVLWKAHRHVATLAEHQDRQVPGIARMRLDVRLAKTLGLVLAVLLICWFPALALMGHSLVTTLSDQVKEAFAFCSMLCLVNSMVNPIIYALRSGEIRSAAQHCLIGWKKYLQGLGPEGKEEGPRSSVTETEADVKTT

On to `CC(C)(CCCCCCBr)c1cc(O)c2c(c1)OC(C)(C)[C@@H]1CCC(=O)C[C@@H]21` (relative stereo) [Compound 4d, (−)-trans-3-(7′-bromo-1′,1′-dimethylheptyl)-6,6a,7,8,10,10a-hexahydro-1-hydroxy-6,6-dimethyl-9H-dibenzo[b,d]pyran-9-one], for which the Ki in data set [1] was 1 nM; in data set [2] it was 11.8 nM.
In the case of `CCCCCCC1(c2cc(O)c3c(c2)OC(C)(C)[C@@H]2CCC(=O)C[C@@H]32)SCCS1` (single isomer, unassigned) [Compound 4c, (−)-trans-3-(2-hexyl-1,3-dithiolan-2-yl)-6,6a,7,8,10,10a-hexahydro-1-hydroxy-6,6-dimethyl-9H-dibenzo[b,d]pyran-9-one], the melting point was 62 to 64 °C (dec.). The molecule also gave a Ki in data set [1] of 11.7 nM. The molecule also yielded an inhibition constant Ki in data set [2] of 2.3 nM.
Molecule `CCCCCCC1(c2cc(O)c([C@@H]3CC(=O)[C@@H]4C[C@H]3C4(C)C)c(O)c2)CCCC1` [Compound 2a, (4R)-4-[4-(1′,1′-cyclopentylheptyl)-2,6-dihydroxyphenyl]-6,6-dimethyl-2-norpinanone] gave a melting point of 187 to 188 °C. In data set [1], this molecule gave an inhibition constant (Ki) of 50.6 nM. The molecule further gave a Ki in data set [2] of 0.4 nM.
`CCCCC=CC1(c2cc(O)c([C@@H]3CC(=O)[C@@H]4C[C@H]3C4(C)C)c(O)c2)CCCC1` [Compound 2b, (4R)4-[4-(1′,1′-cyclopentylhept-2′-enyl)-2,6-dihydroxyphenyl]-6,6-dimethyl-2-norpinanone] showed a melting point of 167 to 168 °C. In data set [1], this molecule had a Ki of 74.5 nM. In addition, in data set [2], the Ki turned out to be 0.4 nM.
For `CCCCCCC1(c2cc(O)c([C@@H]3CC(=O)C4CC3C4(C)C)c(O)c2)SCCS1` (stereo partly drawn) [Compound 2c, (4R)-4-[4-(2-hexyl-1,3-dithiolan-2-yl)-2,6-dihydroxyphenyl]-6,6-dimethyl-2-norpinanone], the melting point is 160 to 161 °C (dec.). For the same molecule, the Ki in data set [1] (setting [3]) is 224 nM. Moreover, in data set [2], the inhibition constant (Ki) was determined as 10.9 nM.
With `CC(C)(CCCCCCBr)c1cc(O)c([C@@H]2CC(=O)[C@@H]3C[C@H]2C3(C)C)c(O)c1` [Compound 2d, (4R)4-[4-(7′-bromo-1′,1′-dimethylheptyl)-2,6-dihydroxyphenyl]-6,6-dimethyl-2-norpinanone], the Ki worked out at 10.6 nM in data set [1] and 9.3 nM in data set [2].
The matching figures for `C#CCCCCC(C)(C)c1cc(O)c([C@@H]2CC(=O)[C@@H]3C[C@H]2C3(C)C)c(O)c1` [Compound 2e, (4R)-4-[4-(1′,1′-dimethylhept-6′-ynyl)-2,6-dihydroxyphenyl]-6,6-dimethyl-2-norpinanone]: 30.8 nM and 0.2 nM.
For the molecule `CCCCCCC1(c2cc(O)c([C@@H]3CC(O)[C@@H]4C[C@H]3C4(C)C)c(O)c2)SCCS1` (stereo partly drawn) [Compound 3, (4R)4-[4-(2-hexyl-1,3-dithiolan-2-yl)-2,6-dihydroxyphenyl]-6,6-dimethyl-2β-norpinanol and (4R)-4-[4-(2-hexyl-1,3-dithiolan-2-yl)-2,6-dihydroxyphenyl]-6,6-dimethyl-2α-norpinanol], the Ki in data set [1] (setting [3]) amounted to 133 nM; in data set [2], 76.8 nM.
As to `CCCCCCC1(c2cc(O)c3c(c2)OC(C)(C)[C@@H]2CCC(=O)C[C@@H]32)CCCC1` [Compound 4a, (−)-trans-3-(1′,1′-cyclopentylheptyl)-6,6a,7,8,10,10a-hexahydro-1-hydroxy-6,6-dimethyl-9H-dibenzo[b,d]pyran-9-one], the Ki was found to be 0.1 nM in data set [1] and 2.6 nM in data set [2].
`CCCCC=CC1(c2cc(O)c3c(c2)OC(C)(C)[C@@H]2CCC(=O)C[C@@H]32)CCCC1` [Compound 4b, (−)-trans-3-(1′,1′-cyclopentylhept-2′-enyl)-6,6a,7,8,10,10a-hexahydro-1-hydroxy-6,6-dimethyl-9H-dibenzo[b,d]pyran-9-one]: the Ki in data set [1] and in data set [2] was 0.2 nM in each case.
On to `C#CCCCCC(C)(C)c1cc(O)c2c(c1)OC(C)(C)[C@@H]1CCC(=O)C[C@@H]21` [Compound 4e, (−)-trans-3-(1′,1′-dimethylhept-6′-ynyl)-6,6a,7,8,10,10a-hexahydro-1-hydroxy-6,6-dimethyl-9H-dibenzo[b,d]pyran-9-one], for which the inhibitory constant (Ki) was determined as 10.7 nM in data set [1] and 4.1 nM in data set [2].
`CCCCCCC1(c2cc(O)c3c(c2)OC(C)(C)[C@@H]2CC[C@@H](O)C[C@@H]32)SCCS1` [Compound 5, 6a,7,8,9,10,10a-Hexahydro-3-(2-hexyl-1,3-dithiolan-2-yl)-6,6-dimethyl-6H-dibenzo[b,d]pyran-1,9β-diol] came in with a Ki in data set [2] of 13.9 nM.
On to `C#CCCCCC(C)(C)c1cc(O)c2c(c1)OC(C)(C)[C@@H]1CC[C@H](O)C[C@@H]21` [Compound 6e, 6a,7,8,9,10,10a-Hexahydro-3-(1′,1′-dimethylhept-6′-ynyl)-6,6-dimethyl-6H-dibenzo[b,d]pyran-1,9α-diol], for which the Ki in data set [1] (Table 2, hexahydrocannabinol analogs, rat forebrain membranes, 0.8 nM [3H] CP-55,940, read-out: Ki in nM for the CB1 Receptor) stood at 11.3 nM; in data set [2], 12 nM.
Turning to `CC(C)(CCCCCCBr)c1cc(O)c2c(c1)OC(C)(C)[C@@H]1CC[C@@H](N=[N+]=[N-])C[C@@H]21` [Compound 7d, 1-Hydroxy-3-(7′-bromo-1′,1′-dimethylheptyl)-6,6-dimethyl-9β-azido-6a,7,8,8,10,10a-hexahydro-6H-dibenzo[b,d]pyran], the figures for the Ki in data set [1] and in data set [2] were 1.6 nM and 13.7 nM, respectively.
In the case of `CCCCCCC(C)(C)c1cc(O)c2c(c1)OC(C)(C)[C@@H]1CC[C@@H](N=[N+]=[N-])C[C@@H]21` [Compound 7g, 1-Hydroxy-3-(1′,1′-dimethylheptyl)-6,6-dimethyl-9β-azido-6a,7,8,8,10,10a-hexahydro-6H-dibenzo[b,d]pyran], the Ki in data set [1] was found to be 5 nM; in data set [2], 10.2 nM.
For `CC(C)(CCCCCCI)c1cc(O)c2c(c1)OC(C)(C)[C@@H]1CC[C@@H](N=[N+]=[N-])C[C@@H]21` [Compound 8, 1-Hydroxy-3-(7′-iodo-1′,1′-dimethylheptyl)-6,6-dimethyl-9β-azido-6a,7,8,8,10,10a-hexahydro-6H-dibenzo[b,d]pyran], the figures for the Ki in data set [1] and in data set [2] were 0.8 nM and 0.9 nM, respectively.
Consider `CC(C)(CCCCC=CI)c1cc(O)c2c(c1)OC(C)(C)[C@@H]1CC[C@@H](N=[N+]=[N-])C[C@@H]21` [Compound 9, 1-Hydroxy-3-(7′-iodo-1′,1′-dimethylhept-6′-enyl)-6,6-dimethyl-9β-azido-6a,7,8,8,10,10a-hexahydro-6H-dibenzo[b,d]pyran], for which the inhibition constant (Ki) in data set [1] and in data set [2] was 0.7 nM throughout.
